{
  "source": "patent US5145855A",
  "about": "“6- and 7-deoxyforskolin and derivatives thereof” (Hoechst Roussel Pharmaceuticals, Inc., priority 1991, dated 1992)",
  "system": "isolated guinea pig left atrium",
  "test": "electrically-driven guinea pig left atrium contractile force assay (positive inotropic effect)",
  "conditions": "for Ionotropic Activity (% Change of Contractile Force): at the concentration of the same line (extrapolated ED50: A 0.04, B 0.073 μg/ml)",
  "method": "The forskolin derivatives of the present invention are useful in the treatment of cardiac failure by virtue of their ability to elicit a positive inotropic effect as determined in the isolated guinea pig atria contractile force assay. The electrically-driven guinea pig left atrium assay is performed as follows: Male guinea pigs weighing 200-300 grams are stunned with a blow to the back of the head. The heart is rapidly removed and placed in a petri dish containing Krebs solution. The ventricle is separated from the atria, the atria are sectioned in the right and left atria, and double-O silk ligatures are tied to the apex of the left atrium. The atrium is fixed to a pair of platinum plate electrodes and suspended in a 20-ml tissue bath containing Kreb's solution aerated with 95% oxygen-5% carbon dioxide at 37° C. One end of the atrium is fixed to a hook in the electrode and the other end is connected to a Grass FTO3 force displacement transducer. Resting tension and stabilization time are the same as described above. The atrium is stimulated at 3 Hz, 0.5 msec duration at supramaximal voltage (constant current) via a Grass S88 stimulator and constant current unit. Force of contraction is continuously displaced on a Gould recorder. Test drug is prepared and is added to the tissue baths. Change in contractile force from baseline is determined for each concentration, and the change in contractile force (g) is plotted against accumulated drug concentration (μg/ml) The activity of the test drug, i.e., the increase in contractile force (g) from the stabilized force expressed as the percentage change at a given concentration is determined graphically, as is the ED50 -value, i.e., the extrapolated dose (μg/ml) which increases the contractile force by 50% over the stabilized rate.",
  "data": [
    {"smiles": "C=C[C@@]1(C)CC(=O)[C@]2(O)[C@@]3(C)[C@@H](O)CCC(C)(C)[C@@H]3[C@H](O)[C@H](OC(C)=O)[C@@]2(C)O1", "note": "[B, Forskolin]", "values": [
      {"measurement": "EC50", "setting": "Cavia porcellus, isolated left atrium, stimulated at 3 Hz, 37° C., Krebs solution, read-out: Extrapolated ED50 value (concentration which increases the contractile force by 50%)", "value": 0.073, "unit": "µg/mL"},
      {"measurement": "Ionotropic Activity (% Change of Contractile Force)", "value": 50, "unit": "%"}
    ]},
    {"smiles": "C=CC1(C)CC(=O)C2(O)C(C)(O1)C(Oc1ncccn1)CC1C(C)(C)CCC(O)C12C.Cl", "note": "(stereo not shown) [A, 6-Deoxy-7-desacetyl-7-(pyrimidin-2-yl)forskolin hydrochloride]", "values": [
      {"measurement": "Ionotropic Activity (% Change of Contractile Force)", "value": 50, "unit": "%"},
      {"measurement": "Extrapolated ED50 value (concentration which increases the contractile force by 50%)", "setting": "isolated left atrium, stimulated at 3 Hz, 37° C., Krebs solution", "value": 0.04, "unit": "µg/mL"}
    ]}
  ]
}
